According to patent US6451340B1, “Nucleotide analog compositions” (Gilead Sciences, Inc., priority 1997, dated 2002):
Read-outs that look alike come from different tables or passages of the source.

Key:
[1] = L-carnitine levels in patients taking AD; assay type: in vivo
Excerpt: Formulations containing crystalline AD and an excipient(s) may also contain L-carnitine or salts of L-carnitine, e.g., L-carnitine-L-tartrate (2:1). […] Tablets containing L-carnitine-L-tartrate and AD may decrease the effect of pivalic acid on L-carnitine depletion in patients taking AD. The amount of L-carnitine to be included will be apparent to the clinician in view of the extent of depletion in patients.

[2] = AD solubility in crystallization solvents; assay type: physicochemical; details: for solubility: organic solvent or mixture
Procedure: Crystalline AD is prepared by allowing crystal formation in an AD composition, usually from a solution of AD in a crystallization mixture containing at least about 6%, typically at least about 30%, usually at least about 35%, of AD. One would ordinarily conduct crystallizations by preparing an AD solution comprising about 6-45% AD and about 55-94% crystallization solvent. […] AD is not freely soluble in some crystallization solvents, e.g., AD solubility in di-n-butyl ether is less than about 0.3 mg/mL, and adding these solvents to an AD solution increases the degree of saturation or supersaturation of the solution. One usually uses organic solutions containing an amount of AD that is near the upper solubility limit in the crystallization solvent(s). The lower amount, about 6%, is the minimum amount of AD needed in a solution to consistently yield crystals. Certain solvents, e.g., methanol or CH2Cl2, can contain more than about 50% AD.
One usually prepares Form 3 crystals by allowing crystals to grow in an anhydrous methanol solution of AD. One obtains AD in methanol by mixing sufficient noncrystalline or crystalline AD in methanol for about 10-15 minutes at room temperature or as needed to dissolve the solid AD to obtain a solution having at least about 100-150 mg AD/mL methanol. AD solubility in methanol at room temperature is greater than 600 mg/mL. Crystallization then proceeds for about 4 to about 48 hours at a temperature of about −5° to about 25°, usually at about 0-23°.
Recrystallization generally begins shortly after completion of adding and mixing the di-n-butyl ether and one then allows recrystallization to proceed for about 4-36 hours, usually about 6-24 hours. Additional yield of crystals from recrystallization at room temperature for about 4-36 hours is usually obtained by cooling the recrystallization mixture to about 4-10° and allowing the mixture to stand about 1-6 hours at the reduced temperature. Usually, the amount of AD one uses in a recrystallization will be sufficient to form a saturated or nearly saturated solution, i.e., about 0.4 g/mL using acetone. Dissolution of AD in acetone is complete in about 2-8 minutes using moderate agitation. Material remaining undissolved after this initial mixing period is removed and discarded, followed by adding the second less polar solvent of the solvent pair to the mixture containing the first crystallization solvent.
One conducts a Form 3 recrystallization in methanol in the same manner as described herein for preparation of Form 3 crystals. A saturated or nearly saturated methanol solution is used to prepare the crystals, i.e., at least about 0.6 g/mL AD.

saturated or nearly saturated solution of AD ([2]; acetone): about 0.4 g/mL
solubility ([2]; di-n-butyl ether, read-out: AD solubility in di-n-butyl ether): < 0.3 mg/mL
saturated or nearly saturated solution of AD ([2]; methanol): at least 0.6 g/mL
amount of AD the solvent can contain ([2]; methanol or CH2Cl2, % w/w): more than 50%
upper limit of solubility of AD ([2]; most crystallization solvents, room temperature, % w/w): 10-41%
solubility ([2]; methanol, room temperature, read-out: AD solubility in methanol): > 600 mg/mL
SMILES: CC(C)(C)C(=O)OCOP(=O)(COCCn1cnc2c(N)ncnc21)OCOC(=O)C(C)(C)C [AD, 9-[2-[[bis[(pivaloyloxy)methoxy]phosphinyl]methoxy]ethyl]adenine]
effect on L-carnitine levels (release of pivalic acid in vivo) [1]: appears to lower the levels of L-carnitine
